We go through nine compounds from patent US4032525A, “Dibenz[b,f]oxepin derivatives” (Hoffmann-La Roche Inc., priority 1974, dated 1977).

Structures are written as SMILES.

For orientation: ED50 means the dose that gives a 50% effect, or the effect in half of the subjects. The term LD50 denotes the dose expected to kill half of the subjects tested.

The subject of one data set is homovanillic acid. As to the kind of experiment: Determination of Homovanillic Acid (HVA) in rat brain. The conditions noted are these: po, 2 h, read-out: Increase in HVA; for response vs control in vivo at 50 mg/kg: dose 50 mg/kg p.o. The data set is classed as in vivo, rats.
Data set [1] deals with rats. The data set is described as follows: "Pole Climbing" Test (conditioned / unconditioned reaction). The conditions noted are these: for ED50: Rattus norvegicus, po, read-out: ED50 (blocking of the conditioned reaction); for ED50 / Quotient ED10 (blocking of the unconditioned reaction)/ED50 (blocking of the conditioned reaction): rats, p.o.; for Quotient ED10 (blocking of the unconditioned reaction)/ED50 (blocking of the conditioned reaction): larger quotient = greater selectivity of neuroleptic activity. The data set is classed as in vivo. The text has this:
II. "Pole Climbing" Test This test provides information about behavior reactions of rats. Rats are trained to avoid, by climbing up a vertical pole in the test chamber, an electrical impulse-- unconditioned impulse-- released via the […] floor some seconds after an acoustic signal-- conditioned impulse. The blocking of the conditioned reaction is designated by the parameter ED50 (mg/kg. p.o.) and the blocking of the unconditioned reaction is designated by the parameter ED10 (mg/kg. p.o.). The parameter ED50 --blocking of the conditioned reaction-- provides a measure of the strength of the neuroleptic activity of the derivative under investigation.

The next data set is described as follows: in vivo. The conditions noted are these: mouse, po.
The next data set is described as follows: Catalepsy Test. The conditions noted are these: rat, in vivo, ip; rats, intraperitoneally; observed every 30 minutes for 6 hours; read-out: ED50 (dose at which 50% of the animals show catalepsy). It counts as in vivo, rats. Here is the method: (§1) A cataleptic activity-- "wax rigidity", i.e., abnormally long retention of a fixed body position--in central depressant or neuroleptically active compounds is considered to be an undesirable side-effect and is produced by motor disorders. Representative dibenz[b,f]oxepin derivatives provided by this invention were administered intraperitoneally to rats. The animals are considered to be cataleptic when the homolateral extremities remain in a crossed position for at least 10 seconds. The number of cataleptic animals is noted every 30 minutes for 6 hours. The ED50 is the dose at which 50% of the animals show catalepsy.

Data set [2] has as its system rats. As to the kind of experiment: Catalepsy Test. The data set is classed as in vivo. The conditions noted are these: in words, relative to chlorpromazine. On the procedure:
as §1

Where [3] appears, read: rats killed two hours after dosing, untreated rats fixed at 100%.
The mark [4] stands for this setting: in words, relative to chlorpromazine.

Regarding `Cc1ccc2c(c1)CC(N1CCN(C)CC1)c1cc(C)ccc1O2` (stereo not drawn) [A], the response vs control in vivo at 2 mg/kg in the data set on homovanillic acid (dose 2 mg/kg p.o., rats killed two hours after dosing, untreated rats fixed at 100%) amounted to 235%. For the same compound, in the data set on rats [1], the ED50 stood at 3.2 mg/kg and the “Quotient ED10 (blocking of the unconditioned reaction)/ED50 (blocking of the conditioned reaction)” value (“Quotient ED10” for short) was determined as 3.1. The LD50 at 24 h in “in vivo” amounted to 900 mg/kg.
Regarding `OCCCN1CCN(C2Cc3cc(Cl)ccc3Oc3ccccc32)CC1` (stereo not drawn) [B], the response vs control in vivo at 3.5 mg/kg in the data set with homovanillic acid (dose 3.5 mg/kg p.o., rats killed two hours after dosing, untreated rats fixed at 100%) turned out to be 260%. The LD50 at 24 h in “in vivo” was 375 mg/kg.
As for `O=C1OCCN1CCN1CCN(C2Cc3cc(Cl)ccc3Oc3ccc(Cl)cc32)CC1` (stereo not drawn) [C], the response vs control in vivo at 5 mg/kg in the data set with homovanillic acid (dose 5 mg/kg p.o., rats killed two hours after dosing, untreated rats fixed at 100%) was determined as 365%. For the same compound, the median lethal dose (LD50) at 24 h in the data set “in vivo” came to 900 mg/kg.
For `CN(C)CCCN1c2ccccc2Sc2ccc(Cl)cc21` [Chlorpromazine, reference compound], in the data set on homovanillic acid, the response vs control in vivo at 20 mg/kg is 320%. Moreover, the “Quotient ED10” value in the data set with rats [1] is reported as 2.5. Moreover, the 50% effective dose (ED50) at 6 h in the data set “Catalepsy Test” is 6 mg/kg.
For the compound `Cc1ccc2c(c1)CC(N1CCN(CCN3CCOC3=O)CC1)c1cc(C)ccc1O2` (stereo not drawn) [D], the response vs control in vivo at 15 mg/kg in the data set with homovanillic acid (dose 15 mg/kg p.o., rats killed two hours after dosing, untreated rats fixed at 100%) amounted to 335%. In addition, in the data set with rats [1], the ED50 was 7.6 mg/kg and the “Quotient ED10” value is 5.6. The compound also displayed an LD50 at 24 h in the data set “in vivo” of 750 mg/kg. Also, the “cataleptic side-effect compared with chlorpromazine” value in the data set with rats [2] is “about one half to about one eighth of the undesired cataleptic side-effect of chlorpromazine”. Moreover, in the data set “Catalepsy Test”, the ED50 at 6 h stood at 14 mg/kg.
Consider `O=C1OCCN1CCN1CCN(C2Cc3cc(Cl)ccc3Oc3ccc(F)cc32)CC1` (stereo not drawn) [E], for which the response vs control in vivo at 10 mg/kg in the data set on homovanillic acid (dose 10 mg/kg p.o., rats killed two hours after dosing, untreated rats fixed at 100%) is 260%. Moreover, in the data set with rats [1], the ED50 was found to be 3.5 mg/kg and the “Quotient ED10” value is 2.8. In addition, in “in vivo”, the LD50 at 24 h turned out to be 900 mg/kg.
`Cc1ccc2c(c1)CC(N1CCN(CCN3CCOC3=O)CC1)c1cc(F)ccc1O2` (stereo not drawn) [F]: in the data set with homovanillic acid (setting [3]), the response vs control in vivo at 50 mg/kg was 265%. For the same compound, in the data set on rats [1], the median effective dose (ED50) is 7 mg/kg and the “Quotient ED10” value is given as 5.1. The LD50 at 24 h in the data set “in vivo” stood at 450 mg/kg. The “cataleptic side-effect compared with chlorpromazine” value with rats [2] is recorded as “about one half to about one eighth of the undesired cataleptic side-effect of chlorpromazine”. Also, the 50% effective dose (ED50) at 6 h in “Catalepsy Test” was found to be 30 mg/kg.
Take `O=C1OCCN1CCN1CCN(C2Cc3cc(Cl)ccc3Oc3ccccc32)CC1` (stereo not drawn) [G]: the response vs control in vivo at 50 mg/kg in the data set with homovanillic acid (setting [3]) stood at 225%. Moreover, in the data set on rats [1], the ED50 is 15.5 mg/kg and the “Quotient ED10” value is reported as 3.5. The “neuroleptic strength of action compared with chlorpromazine” value with rats [1] (setting [4]) was “somewhat lower than that of chlorpromazine”. For the same compound, the median lethal dose (LD50) at 24 h in “in vivo” turned out to be 450 mg/kg. The “cataleptic side-effect compared with chlorpromazine” value in the data set on rats [2] was “about one half to about one eighth of the undesired cataleptic side-effect of chlorpromazine”. In addition, the ED50 at 6 h in the data set “Catalepsy Test” came to 50 mg/kg.
As for `N#CCCN1CCN(C2Cc3cc(Cl)ccc3Oc3ccccc32)CC1` (stereo not drawn) [H], in the data set with homovanillic acid (setting [3]), the response vs control in vivo at 50 mg/kg turned out to be 275%. Moreover, in the data set on rats [1], the ED50 stood at 14 mg/kg and the “Quotient ED10” value is listed as over 21. Moreover, in the data set with rats [1] (setting [4]), the “neuroleptic strength of action compared with chlorpromazine” value is “somewhat lower than that of chlorpromazine” and the “quality (selectivity) of the neuroleptic activity compared with chlorpromazine” value is “this superiority is particularly evident”. This compound also yielded an LD50 at 24 h in “in vivo” of 1500 mg/kg. Further, in the data set with rats [2], the “cataleptic side-effect compared with chlorpromazine” value is reported as “less than one fifth of the undesired cataleptic side-effect of chlorpromazine”. In the data set “Catalepsy Test”, the ED50 at 6 h was over 30 mg/kg.
